Assays:
Assay in all cases: relative viability (nuclei count vs DMSO), 5 days (fraction); higher = more cells survive
Afatinib + Palbociclib = compound: CN(C)C/C=C/C(=O)Nc1cc2c(Nc3ccc(F)c(Cl)c3)ncnc2cc1O[C@H]1CCOC1 [Afatinib] + CC(=O)c1c(C)c2cnc(Nc3ccc(N4CCNCC4)cn3)nc2n(C2CCCC2)c1=O [Palbociclib] (partner 0.5 µM)
Method in brief: (§1)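 Relative viability is defined as nuclei in treated wells over nuclei in vehicle wells. Duplicate plates were run and medians reported. Lung cancer cell lines in 1536-well plates were dosed by pin tool one day after seeding, with one drug or with a fixed anchor-drug dose plus five library-drug doses (not always all listed) in √10 steps, and nuclei were counted after 5 days.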

Afatinib + Luminespib = compound: CN(C)C/C=C/C(=O)Nc1cc2c(Nc3ccc(F)c(Cl)c3)ncnc2cc1O[C@H]1CCOC1 [Afatinib] + CCNC(=O)c1noc(-c2cc(C(C)C)c(O)cc2O)c1-c1ccc(CN2CCOCC2)cc1 [Luminespib] (partner 0.01 µM)
Method in brief: as §1

Afatinib + OSI-027 = compound: CN(C)C/C=C/C(=O)Nc1cc2c(Nc3ccc(F)c(Cl)c3)ncnc2cc1O[C@H]1CCOC1 [Afatinib] + COc1cccc2cc(-c3nc([C@H]4CC[C@H](C(=O)O)CC4)n4ncnc(N)c34)[nH]c12 [OSI-027] (partner 0.5 µM)
Method in brief: as §1

Afatinib + Pictilisib = compound: CN(C)C/C=C/C(=O)Nc1cc2c(Nc3ccc(F)c(Cl)c3)ncnc2cc1O[C@H]1CCOC1 [Afatinib] + CS(=O)(=O)N1CCN(Cc2cc3nc(-c4cccc5[nH]ncc45)nc(N4CCOCC4)c3s2)CC1 [Pictilisib] (partner 1 µM)
Method in brief: as §1

Cell Line	relative viability (Afatinib + Palbociclib; first compound 0.005 µM)	relative viability (Afatinib + Palbociclib; first compound 0.01581 µM)	relative viability (Afatinib + Palbociclib; first compound 0.05 µM)	relative viability (Afatinib + Palbociclib; first compound 0.1581 µM)	relative viability (Afatinib + Palbociclib; first compound 0.5 µM)	relative viability (Afatinib + Luminespib; first compound 0.005 µM)	relative viability (Afatinib + Luminespib; first compound 0.01581 µM)	relative viability (Afatinib + Luminespib; first compound 0.05 µM)	relative viability (Afatinib + Luminespib; first compound 0.1581 µM)	relative viability (Afatinib + Luminespib; first compound 0.5 µM)	relative viability (Afatinib + OSI-027; first compound 0.005 µM)	relative viability (Afatinib + OSI-027; first compound 0.01581 µM)	relative viability (Afatinib + OSI-027; first compound 0.05 µM)	relative viability (Afatinib + OSI-027; first compound 0.1581 µM)	relative viability (Afatinib + OSI-027; first compound 0.5 µM)	relative viability (Afatinib + Pictilisib; first compound 0.005 µM)	relative viability (Afatinib + Pictilisib; first compound 0.01581 µM)	relative viability (Afatinib + Pictilisib; first compound 0.05 µM)	relative viability (Afatinib + Pictilisib; first compound 0.1581 µM)	relative viability (Afatinib + Pictilisib; first compound 0.5 µM)
NCI-H661	0.387	0.339	0.347	0.34	0.337	0.994	0.895	0.867	0.674	0.629	0.558	0.458	0.528	0.386	0.367	0.386	0.301	0.318	0.313	0.249
HOP-62	0.415	0.431	0.523	0.48	0.445	1.04	0.977	0.968	0.994	0.89	0.947	0.835	0.826	0.933	0.827	0.802	0.688	0.757	0.662	0.639
NCI-H1944	0.287	0.33	0.272	0.206	0.237	0.609	0.629	0.552	0.498	0.491	0.429	0.329	0.328	0.311	0.327	0.387	0.307	0.335	0.319	0.335
SW 1573	0.451	0.364	0.404	0.306	0.362	0.141	0.262	0.247	0.214	0.214	0.607	0.516	0.644	0.541	0.618	0.547	0.406	0.585	0.484	0.484
LU99A	0.451	0.39	0.425	0.36	0.391	0.198	0.294	0.25	0.343	0.305	0.294	0.297	0.295	0.287	0.292	0.345	0.395	0.308	0.349	0.295
NCI-H647	0.37	0.335	0.385	0.368	0.312	0.169	0.26	0.12	0.183	0.158	0.582	0.629	0.487	0.705	0.554	0.407	–	0.457	0.459	0.453
A-427	0.523	0.526	0.537	0.483	0.505	1.1	0.926	1.04	0.968	0.915	0.426	0.321	0.446	0.519	0.358	0.729	0.684	0.587	0.774	0.658
COR-L 105	0.398	0.355	0.3	0.36	0.352	0.678	0.476	0.445	0.307	0.272	0.346	0.252	0.265	0.245	0.27	0.359	0.355	0.302	0.252	0.35
